Marks after values point to notes of the source that are not given here.
What was measured:
[1] = molecular target: T1, PARP1 (Mus musculus, UniProt P11103); settings: cortical neuron cultures; cited from earlier work
T1 construct: host or cells: cortical neuron cultures

[2] = tested on: mice; settings: chronic administration; cited from earlier work
[3] = tested on: rat; settings: cited from earlier work; for Anti-inflammatory effects in gut inflammation: post-injury administration; for Accumulation of poly (ADP-ribose) in ileum and colon: splanchnic artery occlusion-shocked rats, dinitrobenzene sulfonic acid-treated rats
[4] = tested on: C57BL/6 ApoE−/− mice; assay: Histology, trichrome staining and immunohistochemistry (SMA, CD68, MCP-1) of atherosclerotic plaques; type: in vivo
Source text: (§1) C57BL/6 ApoE^−/− mice (Jackson Laboratory, Bar Harbor, Me.) were housed and bred in a pathogen-free animal care facility at LSUHSC (New Orleans, La.), and were given full access to laboratory rodent chow and water. Principles of laboratory animal care were followed (NIH publication No. 86-23, revised 1985). Experimental protocols were approved by the LSUHSC Animal Care and Use Committee. The animals were divided into six groups to provide proper controls, and to allow calculation of the significance of the results. All Groups were ApoE^−/− mice. The mice were fed a regular diet or a high fat diet for 12 or 16 weeks; in some cases mice that had been fed a high fat diet for 12 weeks were switched to a regular diet for the final 4 weeks (16 weeks total). Some mice were given injections of TIQ-A during the final four weeks, while others were injected with vehicle as controls:
(§2) The high-fat diet (Harlan Teklad, Madison, Wis.) contained 21% fat by weight (0.15% cholesterol). The regular diet was normal laboratory rodent chow. Controls were given i.p. injections of vehicle three times per week, during the final four weeks. Experimental Groups received i.p. injections of the PARP inhibitor thieno[2,3-c]isoquinolin-5-one (TIQ-A) (Sigma-Aldrich, St Louis, Mo.) at the rate of 3 mg/kg, three times per week, during the last 4 weeks. At the conclusion of each protocol, the mice were fasted, anesthetized with ketamine/xylazine (60 and 3 mg/kg, respectively), and blood was drawn for serum preparation.
(§3) Perfusion-fixed aortas were dissected and prepared either for en face, Oil-Red-O staining using standard protocols, or for embedding in paraffin. Tissues were sectioned and were stained following standard protocols with haematoxylin and eosin (H&E), trichrome staining, or immunohistochemistry (IHC). Lesion areas were assessed as described in K. Oumona-Benachour et al. (2007). IHC used antibodies against murine smooth muscle actin (SMA) (Santa Cruz Biotechnologies, Santa Cruz, Calif.), or antibodies against CD68. Immunoreactivity was assessed in captured images of immunostained stained sections as described in K. Oumona-Benachour et al. (2007).

[5] = tested on: OVA-specific IgE; assay: OVA-specific IgE in BAL fluid (sandwich ELISA); type: in vivo, mice; settings: 24 hours post-challenge
Experimental: (§4) Mice were bred in a pathogen-free facility at the Louisiana State University Health Science Center (LSUHSC), New Orleans, La., and were given unlimited access to sterilized chow and water. Animal maintenance, experimental protocols, and procedures were approved by the LSUHSC Animal Care & Use Committee. C57BL/6 mice were purchased from Jackson Laboratories (Bar Harbor, Me.). Six-week old C57BL/6 mice (n z 5) were sensitized with two, 100 μg i.p. injections of Grade V chicken ovalbumin (OVA) (Sigma-Aldrich, St. Louis Mo.), mixed with 2 mg aluminum hydroxide in saline. The two injections were given seven days apart. One week after the second sensitization the mice were placed in a Plexiglas chamber and challenged with aerosolized ovalbumin (3% OVA in saline, generated by a Bennett nebulizer, DeVilbiss, Pa.). The challenged mice were held in the chamber with the aerosolized OVA for 30 min. […]
(§5) A final volume of 5 ml saline was used in BAL to assess inflammatory cells (48 hours post OVA-challenge), or 1 ml saline was used to assess cytokines or IgE (24 hours post OVA-challenge). […] Mucin was assessed essentially as described in L. Whittaker et al., Am. […] OVA-specific IgE was quantified by a sandwich ELISA (Serotec, Raleigh, N.C.) essentially as described in Oumona et al. (2006).

[6] = tested on: mice; settings: administration prior to allergen challenge; cited from earlier work
[7] = tested on: ICAM-1; assay: Quantitative RT-PCR of ICAM-1 in thoracic aorta; type: in vivo; settings: thoracic aortas of Group 6 mice
Source text: (§6) RNA was extracted from thoracic aortas, and cDNA was generated by standard methods. PCR Primers for MCP-1 and for actin were as described in C. Hans et al., “Thieno[2,3-c]isoquinolin-5-one (TIQ-A), a potent poly(ADP-ribose) polymerase inhibitor, promotes atherosclerotic plaque regression in high fat diet-fed ApoE-deficient mice: effects on inflammatory markers and lipid content,” J. Pharm. Exp. Ther., vol. 329, pp. 150-158 (2009, published online Jan. 5, 2009). Amplification, detection, and data analysis were performed with the iCycler real-time PCR system (Bio-Rad Laboratories, Hercules, Calif.).
In addition to MCP-1, the recruitment and their retention of monocytes and macrophages within atherosclerotic plaques requires the expression of adhesion molecules by endothelial and intimal cells. In particular, the adhesion molecule ICAM-1 expression is expressed in the later stages of plaques.

[8] = tested on: C57BL/6 mice; assay: Eosinophil and inflammatory cell infiltration in lungs and BAL fluid of OVA-sensitized and challenged mice; type: in vivo
Experimental: (§7) Mice were bred in a pathogen-free facility at the Louisiana State University Health Science Center (LSUHSC), New Orleans, La., and were given unlimited access to sterilized chow and water. Animal maintenance, experimental protocols, and procedures were approved by the LSUHSC Animal Care & Use Committee. C57BL/6 mice were purchased from Jackson Laboratories (Bar Harbor, Me.). Six-week old C57BL/6 mice (n z 5) were sensitized with two, 100 μg i.p. injections of Grade V chicken ovalbumin (OVA) (Sigma-Aldrich, St. Louis Mo.), mixed with 2 mg aluminum hydroxide in saline. The two injections were given seven days apart. One week after the second sensitization the mice were placed in a Plexiglas chamber and challenged with aerosolized ovalbumin (3% OVA in saline, generated by a Bennett nebulizer, DeVilbiss, Pa.). The challenged mice were held in the chamber with the aerosolized OVA for 30 min. Additional groups of mice were treated by the same protocol, except that they received 6 mg/kg TIQ-A (i.p.) 2 hours prior to challenge, 1 hour post-challenge, or 6 hours post-challenge with OVA. Control groups were neither sensitized, nor challenged. The mice used in each experiment were from the same litter or the same family. Mice were allowed to recover, and then killed by CO2 asphyxiation after 24 or 48 hours. The sacrificed mice were subjected to bronchio-alveolar lavage (BAL), or their lung tissues were dissected, fixed, and processed for histological analysis.
(§8) A final volume of 5 ml saline was used in BAL to assess inflammatory cells (48 hours post OVA-challenge), or 1 ml saline was used to assess cytokines or IgE (24 hours post OVA-challenge). Formalin-fixed lungs were sectioned and subjected to haematoxylin and eosin (H&E), Periodic Acid-Schiff (PAS)-staining using standard protocols. Mucin was assessed essentially as described in L. Whittaker et al., Am. J. Respir. Cell. Mol. Biol., vol. 27, pp. 593-602 (2002). […] OVA-specific IgE was quantified by a sandwich ELISA (Serotec, Raleigh, N.C.) essentially as described in Oumona et al. (2006).

[9] = tested on: C57BL/6 ApoE−/− mice; assay: Atherosclerotic plaque size and number in aortas of high-fat-diet-fed ApoE−/− mice (en face Oil-Red-O staining); type: in vivo
Source text: as §1, §2, §3

[10] = tested on: C57BL/6 mice; assay: Airway hyperresponsiveness: lung resistance to methacholine by forced oscillation; type: in vivo; settings: TIQ-A post-OVA challenge; methacholine 50 mg/ml, 24 hours after OVA exposure
Experimental: as §7, with “The mice used in each experiment were from the same litter or the same family. Mice were allowed to recover, and then killed by CO2 asphyxiation after 24 or 48 hours. The sacrificed mice were subjected to bronchio-alveolar lavage (BAL), or their lung tissues were dissected, fixed, and processed for histological analysis.” left out
Twenty-four hours after OVA challenge lung resistance to increasing doses of methacholine (MeCh, Sigma; 0, 25, and 50 mg/ml in isotonic saline) was assessed by forced oscillation, essentially as described in D. You et al., Respir. […]

[11] = tested on: MCP-1; assay: Quantitative RT-PCR of MCP-1 in thoracic aorta; type: in vivo, mice; settings: normalized versus β-actin
Source text: as §6
Several pathways may play a role in the regression of plaques, including some that interfere with the recruitment and retention of monocytes, macrophages and foam cells, cells that appear to be required for the maintenance of advanced plaques. In particular, the continuing recruitment of macrophages into lesions is considered a major factor in maintaining the size and complexity of atherosclerotic plaques. […] To confirm that the decrease in CD68-positive cells was associated with reduced expression of chemotactic factors, we used quantitative RT-PCR to monitor the effect of TIQ-A on MCP-1 expression. We measured transcription of the MCP-1 gene in the thoracic aorta using primers specific for murine MCP-1. Measured values were normalized versus measured levels of transcription of the β-actin gene.

[12] = tested on: TNF; assay: Quantitative RT-PCR of TNF; type: in vivo, mice; settings: Group 6
[13] = Fasted plasma cholesterol and LDL (Cholestech LDX); type: in vivo, mice; settings: after overnight fasting; Group 6
Experimental: as §2
Plasma cholesterol and LDL were analyzed using a commercially available kit according to the manufacturer's instructions (Cholestech LDX, Hayward, Calif.).

[14] = tested on: CCR2; assay: Expression of the MCP-1 receptor CCR2; type: in vivo; settings: TIQ-A-treated mice
[15] = tested on: C57BL/6 mice; assay: Mucus production in airways of OVA-challenged mice (PAS staining, histological mucin index); type: in vivo
Experimental: as §7, §8

[16] = tested on: IL-4, IL-5 and IL-13; assay: Th2 cytokines in BAL fluid of OVA-challenged mice (Bio-Rad Bioplex); type: in vivo; settings: BAL 24 hours after challenge; TIQ-A after versus before OVA challenge
Experimental: as §4, §5

[17] = tested on: PARP-2; settings: cited from earlier work
[18] = Group 3: high fat diet for 16 weeks, TIQ-A 3 mg/kg i.p. three times per week during last 4 weeks
[19] = Group 6: high fat diet for 12 weeks, then regular diet during last 4 weeks with TIQ-A 3 mg/kg i.p. three times per week

T1 sequence (P11103 2-1013 limits assumed): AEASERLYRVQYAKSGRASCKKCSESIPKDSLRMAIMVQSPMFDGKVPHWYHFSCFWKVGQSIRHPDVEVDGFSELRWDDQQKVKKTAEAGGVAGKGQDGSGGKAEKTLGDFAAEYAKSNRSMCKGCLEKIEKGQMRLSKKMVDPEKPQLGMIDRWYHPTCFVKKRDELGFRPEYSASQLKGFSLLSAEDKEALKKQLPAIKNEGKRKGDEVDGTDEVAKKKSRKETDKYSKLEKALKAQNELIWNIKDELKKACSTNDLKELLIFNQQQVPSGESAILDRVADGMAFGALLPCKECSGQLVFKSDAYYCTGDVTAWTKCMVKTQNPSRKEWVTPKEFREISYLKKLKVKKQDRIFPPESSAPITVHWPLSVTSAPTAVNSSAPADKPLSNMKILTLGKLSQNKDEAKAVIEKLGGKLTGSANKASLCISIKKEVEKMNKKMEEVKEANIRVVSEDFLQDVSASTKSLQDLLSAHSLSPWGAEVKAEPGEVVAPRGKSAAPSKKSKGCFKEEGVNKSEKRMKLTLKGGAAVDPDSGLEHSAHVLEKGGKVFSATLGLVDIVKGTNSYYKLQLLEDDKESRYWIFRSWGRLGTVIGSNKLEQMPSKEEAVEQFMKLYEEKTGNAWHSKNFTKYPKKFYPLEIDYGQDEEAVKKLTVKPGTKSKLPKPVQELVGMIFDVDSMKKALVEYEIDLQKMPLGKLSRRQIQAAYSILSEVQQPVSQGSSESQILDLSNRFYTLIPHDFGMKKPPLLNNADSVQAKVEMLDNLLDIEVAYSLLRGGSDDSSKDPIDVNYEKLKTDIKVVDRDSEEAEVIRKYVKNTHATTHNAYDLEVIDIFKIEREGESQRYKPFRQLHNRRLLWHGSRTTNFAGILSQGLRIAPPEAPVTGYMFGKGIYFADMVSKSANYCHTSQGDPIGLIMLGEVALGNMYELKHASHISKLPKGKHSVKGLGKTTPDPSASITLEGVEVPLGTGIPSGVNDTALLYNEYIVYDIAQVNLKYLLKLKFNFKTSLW

SMILES: CN(C)[C@@H]1C(O)=C(C(N)=O)C(=O)[C@@]2(O)C(O)=C3C(=O)c4c(O)ccc(Cl)c4[C@@H](O)[C@H]3C[C@@H]12 [demeclocycline]
- Rank order of potency of tetracycline derivatives [1]: minocycline>doxycycline>demeclocycline>chlortetracycline

SMILES: CN(C)CC(=O)Nc1ccc2[nH]c(=O)c3ccccc3c2c1 [PJ34]
- Plaque formation in atherosclerosis [2]: markedly decreased

SMILES: CN1CCN(Cc2ccc3c(c2)-c2n[nH]c(=O)c4cccc(c24)O3)CC1 [GPI 15427, 10-(4-methyl-piperazin-1-ylmethyl)-2H-7-oxa-1,2-diaza-benzo[de]anthracen-3-one]
- Anti-inflammatory effects in gut inflammation [3]: potent anti-inflammatory effects
- Accumulation of poly (ADP-ribose) in ileum and colon [3]: diminished

SMILES: O=C1N=C2SCC=C2c2ccccc21 [TIQ-A, thieno[2,3-c]isoquinolin-5-one]
- CD68 immunoreactivity ([4]; Group 6): significantly reduced
- Collagen density by trichrome staining ([4]; Group 6): significant increase in collagen density
- Fibrous cap by trichrome staining ([4]; Group 6): much thicker fibrous cap
- Foam cells in plaques ([4]; Group 6): fewer foam cells
- Plaque size by microscopic examination ([4]; Group 6): much smaller
- Smooth muscle actin immunoreactivity ([4]; Group 6): significant increase
- MCP-1 immunoreactivity of plaques ([4]; TIQ-A-treated mice): decrease
- IgE production ([5]; TIQ-A after OVA challenge): almost completely blocked
- Levels of OVA-specific IgE in BAL fluid ([5]; TIQ-A prior to OVA challenge): moderate reduction
- Eosinophil infiltration and associated mucus production in lung airways [6]: suppressed
- Th2 cytokines, including IL-4 IL-5 and IL-13 [6]: suppressed
- Expression of ICAM-1 (quantitative RT-PCR) [7]: significantly reduced
- Eosinophil recruitment into lungs ([8]; TIQ-A 6 mg/kg i.p. prior to OVA-challenge): significantly suppressed
- Number of eosinophils in BAL fluids ([8]; post-challenge administration compared with administration prior to challenge): substantially below that seen when the drug was administered prior to challenge
- Infiltration of inflammatory cells into the airways ([8]; single TIQ-A i.p. injection one hour or six hours after challenge): greatly reduced
- Plaque Number (mean ± S.D.) Abdominal Aorta [9, 18]: 5.7 ± 0.94
- Plaque Number (mean ± S.D.) Thoracic Aorta [9, 18]: 6.0 ± 1.53
- Plaque size (median ± S.D.) Abdominal Aorta [9, 18]: 3.06 ± 0.66 mm^2
- Plaque size (median ± S.D.) Thoracic Aorta [9, 18]: 7.18 ± 2.02* mm^2
- Plaque number in the abdominal region (in words) ([9]; Group 6): significant reduction in plaque number
- Regression of established plaques, thoracic and abdominal regions of the aorta ([9]; Group 6): statistically significant regression of established plaques
- Plaque Number (mean ± S.D.) Abdominal Aorta [9, 19]: 4.0 ± 1.29
- Plaque Number (mean ± S.D.) Thoracic Aorta [9, 19]: 4.20 ± 0.69
- Plaque size (median ± S.D.) Abdominal Aorta [9, 19]: 1.96 ± 0.48 mm^2
- Plaque size (median ± S.D.) Thoracic Aorta [9, 19]: 5.12 ± 1.68*‡† mm^2
- Lesion size in the abdominal region (in words) ([9]; Group 6, difference not statistically significant): trended lower
- Airway hyperresponsiveness to inhaled methacholine [10]: almost completely blocked
- Expression of MCP-1 (RT-PCR) [11]: significantly reduced
- TNF expression (quantitative RT-PCR) [12]: significantly down-regulated
- LDL level [13]: significantly lowered
- Total cholesterol level [13]: significantly lowered
- Expression of the MCP-1 receptor, CCR2 [14]: no difference
- PAS-positive goblet cells in lungs ([15]; TIQ-A one or six hours after challenge): nearly absent
- Mucus production (histological mucin index) ([15]; TIQ-A prior to OVA challenge): significantly reduced
- Mucus production (histological mucin index) ([15]; post-challenge treatment with TIQ-A): effectively blocked mucus production completely
- Production of IL-4, IL-5 and IL-13 in BAL fluids [16]: more effectively suppressed by administering TIQ-A after the OVA challenge than before challenge

SMILES: O=C(Oc1cccc2cnccc12)c1ccccc1 [5-benzoyloxyisoquinoline]
- Selectivity for the PARP-2 isotype over the PARP-1 isotype [17]: 60 fold

SMILES: O=C1NCCc2c(OCCCCN3CCCCC3)cccc21 [3,4-dihydro-5-[4-(1-piperidinyl)butoxy]-1(2H)-isoquinolinone]
- Induced PARP1 activation [1]: inhibited

SMILES: CN1CCN(c2ccc3[nH]c(=O)c4ccccc4c3n2)CC1 [GPI 16539, 2-(4-methyl-piperazin-1-yl)-5H-benzo[c][1,5]naphthyridin-6-one]
- Anti-inflammatory effects in gut inflammation [3]: potent anti-inflammatory effects
- Accumulation of poly (ADP-ribose) in ileum and colon [3]: diminished

Reference: patent publication US20110028420A1, “Regression of Established Atherosclerotic Plaques, and Treating Sudden-Onset Asthma Attacks, using PARP Inhibitors” (priority 2008, published 2011)
